This is an account of results in PMC2762729 (Biochemistry, 2009).

Experiment [1] concerns 35-mer synthetic SRL mimic with GAGA tetraloop. Particulars: cited from earlier work.
For experiment [2], the system named is saporin-L1. Particulars: pH 7.8; cited from earlier work.
The target in experiment [3] is T1, saporin-L1 (Saponaria officinalis, UniProt Q2QEH4). Format: biochemical. To be noted: read-out: EC50, rescue of translation; n = 3.
Experiment [4] addresses T1, saporin-L1. Briefly: Competitive inhibition of A-10 RNA.
Experiment [5] addresses T1, saporin-L1. Briefly: Competitive inhibition of A-10 RNA. The source holds these as a separate data set.
Experiment [6] concerns saporin-L1. In kind it is biochemical, Saponaria officinalis.
The test system of experiment [7] is saporin-L1. In kind it is biochemical, Saponaria officinalis. This is another data set of the same source.

“Also recorded” adds a separate entry of the source. Read-outs that look alike come from different tables or passages of the source.

T1 sequence (Q2QEH4 22-280 limits assumed): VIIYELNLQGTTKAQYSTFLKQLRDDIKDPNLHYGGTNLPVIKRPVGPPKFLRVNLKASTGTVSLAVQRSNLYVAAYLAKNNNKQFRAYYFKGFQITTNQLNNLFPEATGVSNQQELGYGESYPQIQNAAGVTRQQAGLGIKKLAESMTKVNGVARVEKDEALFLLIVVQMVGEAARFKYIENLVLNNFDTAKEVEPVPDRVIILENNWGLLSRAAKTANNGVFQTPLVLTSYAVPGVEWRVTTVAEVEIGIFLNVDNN

With trichosanthin, the “activity (in words)” value in experiment [1] is recorded as “no detectable activity”.
For the compound gelonin, the “activity (in words)” value in experiment [1] is on record as “no detectable activity”.
As to poly(A), in the experiment with saporin-L1 [2], the Km is 639 ± 32 µM and the kcat is 1.02 ± 0.017 s⁻¹.
On to `CO[C@@H]1[C@H](OP(=O)(O)OCCCO)[C@@H](COP(=O)(O)O[C@H]2CN(Cc3c[nH]c4c(N)ncnc34)C[C@@H]2COP(=O)(O)OCCCO)O[C@H]1n1cnc2c(=O)[nH]c(N)nc21` [s3(9-DA)Gs3 2′-OMe], for which, at saporin-L1 [3], the EC50 was 0.036 µM. Also, the Ki at saporin-L1 [4] turned out to be 0.0064 ± 0.0017 µM.
In the case of `Nc1ncnc2c(CN3C[C@H](CO)[C@@H](O)C3)c[nH]c12` [9-DA, 9-deazaadenine-9-methylene-N-hydroxypyrrolidine (DADMeA)], the inhibitory constant (Ki) at saporin-L1 [5] is over 500 µM.
With `Nc1ncnc2c(CN3C[C@H](CO)[C@@H](O)C3)c[nH]c12` [9-DA, 9-deazaadenine-9-methylene-N-hydroxypyrrolidine], the “inhibition of saporin-L1 (in words)” value in the experiment with saporin-L1 [6] was “not an inhibitor; also recorded: poor inhibitor”. In addition, the Ki at saporin-L1 [6] (read-out: Ki (no slow onset observed)) is over 500 µM.
For 5′-CGCGAGAGCG-3′ [A-10 RNA], in the experiment on saporin-L1 [7], the “Km, fold lower with saporin-L1 than with saporin-S6” value was 4 fold; the “Km, fold tighter than poly(A) RNA” value is listed as 4.5 fold; the “kcat/Km, fold increased catalytic efficiency over poly(A) RNA” value stood at 45 fold; the “kcat/Km, fold more efficient with saporin-L1 than with saporin-S6” value is listed as 4,800 fold. Moreover, in the experiment with saporin-L1 [7] (pH 7.7), the Km stood at 95 ± 7 µM and the catalytic constant (kcat) is 7.33 ± 0.267 s⁻¹.
